Article PMC11566078, “Bactericidal activities and biochemical features of 16 antimicrobial peptides against bovine-mastitis causative pathogens” (Veterinary Research, 2024)
Where two headings read alike, the source gives them in different places. Where no end group is shown, it is not given here.

Tests used:
Format in all cases: cell-based
[1] = test system: Bacillus cereus ATCC 10876; assay: microbe, parasite or virus in culture
Description: (§1) The standard bacterial strains used for antimicrobial activity assays include Staphylococcus aureus ATCC (American Type Culture Collection, Manassas, VA, USA) 6538, Bacillus cereus ATCC 10876, Enterococcus faecalis ATCC 29212, Streptococcus […] 27956, Streptococcus dysgalactiae ATCC 27957, Streptococcus equi subsp. zooepidemicus ATCC 43079, Escherichia coli ATCC 25922, and Pseudomonas aeruginosa ATCC 27853. Most bacterial strains were cultured in LB medium except for E. faecalis and streptococci, which were cultivated in brain heart infusion (BHI) broth (BD Bioscience). […] Experiments were conducted in triplicate.

[2] = test system: Enterococcus faecalis ATCC 29212; assay: microbe, parasite or virus in culture
Description: as §1

[3] = test system: Pseudomonas aeruginosa ATCC 27853; assay: microbe, parasite or virus in culture
Description: as §1

[4] = test system: Staphylococcus aureus ATCC 6538; assay: microbe, parasite or virus in culture
Description: as §1

[5] = test system: Streptococcus agalactiae ATCC 27956; assay: microbe, parasite or virus in culture
Description: as §1

[6] = test system: Streptococcus dysgalactiae ATCC 27957; assay: microbe, parasite or virus in culture
Description: as §1

[7] = test system: Streptococcus equi subsp. zooepidemicus ATCC 43079; assay: microbe, parasite or virus in culture
Description: as §1

[8] = test system: eight standard bacterial strains
Description: as §1

[9] = test system: Escherichia coli ATCC 25922; assay: microbe, parasite or virus in culture; settings: MH broth, WST colourimetric, 1.5 × 10^5 cells/well, 37 °C 6 h + 2 h reagent, A450, triplicate
Description: as §1

[10] = test system: Staphylococcus haemolyticus; assay: MIC against field isolate from milk with high SCC; settings: field isolate from milk; WST colourimetric, 37 °C 6 h; triplicate
Description: (§2) All plates were cultivated aerobically.
(§3) Experiments were conducted in triplicate.

[11] = test system: Staphylococcus chromogenes; assay: microbe, parasite or virus in culture; settings: field isolate from milk; WST colourimetric, 37 °C 6 h; triplicate
Description: as §2, §3

[12] = test system: Staphylococcus epidermidis; assay: microbe, parasite or virus in culture; settings: field isolate from milk; WST colourimetric, 37 °C 6 h; triplicate
Description: as §2, §3

Staphylococcus xylosus = assay: microbe, parasite or virus in culture; settings: field isolate from milk; WST colourimetric, 37 °C 6 h; triplicate
Description: as §2, §3

[13] = only some Gram-negative and Gram-positive strains, range stated for the group of peptides
[14] = ATCC 10876, MH broth, WST colourimetric, 37 °C 6 h, triplicate
[15] = ATCC 27853, CAMHB, WST colourimetric, 37 °C 6 h, triplicate
[16] = ATCC 6538, MH broth, WST colourimetric, 37 °C 6 h, triplicate
[17] = ATCC 27956, BHI broth, WST colourimetric, 37 °C 6 h, triplicate
[18] = ATCC 27957, BHI broth, WST colourimetric, 37 °C 6 h, triplicate
[19] = ATCC 43079, BHI broth, WST colourimetric, 37 °C 6 h, triplicate
[20] = ATCC 29212, BHI broth, WST colourimetric, 37 °C 6 h, triplicate

Row | Substance | Minimal inhibitory concentration, Bacillus cereus ([1]; ATCC 10876, 6 h) | Minimal inhibitory concentration, Enterococcus faecalis ([2]; ATCC 29212, 6 h) | Minimal inhibitory concentration, Pseudomonas aeruginosa ([3]; ATCC 27853, 6 h) | Minimal inhibitory concentration, Staphylococcus aureus ([4]; ATCC 6538, 6 h) | Minimal inhibitory concentration, Streptococcus agalactiae ([5]; ATCC 27956, 6 h) | Minimal inhibitory concentration, Streptococcus dysgalactiae ([6]; ATCC 27957, 6 h) | Minimal inhibitory concentration, Streptococcus equi subsp. zooepidemicus ([7]; ATCC 43079, 6 h) | MICs, range over the strains against which active [8, 13] [µM] | further results
1 | ILGRLRDLLRRGGRKIGQGLERIGQRIQGFFSNREPMEES [HA-CATH] | 25 (5.4) μg/mL | > 40 (8.6) μg/mL | > 40 (8.6) μg/mL | 26 (5.6) μg/mL | > 40 (8.6) μg/mL | > 40 (8.6) μg/mL | > 40 (8.6) μg/mL | 0.7 to 18.8 | –
2 | SKFFRKARKKLGKGLQKIKNVLRKY [ΔHg-CATH] | > 40 (13.2) μg/mL | > 40 (13.2) μg/mL | 5 (1.7) μg/mL | > 40 (13.2) μg/mL | > 40 (13.2) μg/mL | 15 (4.9) μg/mL | 15 (4.9) μg/mL | – | MICs, range over the strains against which active [8]: 0.7 to 18.8 µM
3 | GGLRSLGRKILRAWKKYGPIIVPIIRIG [BMAP-28] | 7 (2.2) μg/mL | 15 (4.8) μg/mL | 9 (2.9) μg/mL | 5 (1.6) μg/mL | > 40 (12.6) μg/mL | > 40 (12.6) μg/mL | > 40 (12.6) μg/mL | 0.7 to 18.8 | –
4 | KRRGSVTTRYQFLMIHLLRPKKLFA [EA-CATH1] | > 40 (13.1) μg/mL | 30 (9.8) μg/mL | 19 (6.1) μg/mL | 41 (13.4) μg/mL | > 40 (13.1) μg/mL | > 40 (13.1) μg/mL | > 40 (13.1) μg/mL | 0.7 to 18.8 | –
5 | WYQLIRTFGNLIHQKYRKLLEAYRKLRD [ΔModoCath5] | 26 (7.3) μg/mL | 10 (2.8) μg/mL | > 40 (11.0) μg/mL | 6 (1.7) μg/mL | > 40 (11.0) μg/mL | > 40 (11.0) μg/mL | > 40 (11.0) μg/mL | – | –
6 | RRRPRPPYLPRPRPPPFFPPRLPPRIPPGFPPRFP [PR-35] | > 40 (9.5) μg/mL | > 40 (9.5) μg/mL | > 40 (9.5) μg/mL | > 40 (9.5) μg/mL | > 40 (9.5) μg/mL | > 40 (9.5) μg/mL | > 40 (9.5) μg/mL | – | –
7 | Nisin | – | – | – | – | – | – | – | – | Minimal inhibitory concentration, Bacillus cereus [1, 14]: 4 (1.2) μg/mL; Minimal inhibitory concentration, Escherichia coli [9]: > 64 (19.2) μg/mL; Minimal inhibitory concentration, Pseudomonas aeruginosa [3, 15]: > 64 (19.2) μg/mL; Minimal inhibitory concentration, Staphylococcus aureus [4, 16]: 2 (0.60) μg/mL; Minimal inhibitory concentration, Streptococcus agalactiae [5, 17]: 2 (0.60) μg/mL; Minimal inhibitory concentration, Streptococcus dysgalactiae [6, 18]: 4 (1.2) μg/mL; Minimal inhibitory concentration, Streptococcus equi subsp. zooepidemicus [7, 19]: 4 (1.2) μg/mL; MICs, range over all Gram-positive strains in the panel ([8]; all Gram-positive strains of the standard panel): 2 to 16 µg/mL
8 | Lysostaphin: bacteriocin produced by Staphylococcus simulans, purchased (Sigma Aldrich) | – | – | – | – | – | – | – | – | Minimal inhibitory concentration, Bacillus cereus [1, 14]: > 160 (29.7) μg/mL; Minimal inhibitory concentration, Enterococcus faecalis [2, 20]: > 160 (29.7) μg/mL; Minimal inhibitory concentration, Escherichia coli [9]: > 160 (29.7) μg/mL; Minimal inhibitory concentration, Pseudomonas aeruginosa [3, 15]: > 160 (29.7) μg/mL; Minimal inhibitory concentration, Staphylococcus aureus [4, 16]: 1 µg/mL; Minimal inhibitory concentration, Streptococcus agalactiae [5, 17]: > 160 (29.7) μg/mL; Minimal inhibitory concentration, Streptococcus dysgalactiae [6, 18]: > 160 (29.7) μg/mL; Minimal inhibitory concentration, Streptococcus equi subsp. zooepidemicus [7, 19]: > 160 (29.7) μg/mL; Minimal inhibitory concentration, Staphylococcus haemolyticus [10]: 1 (37.3) μg/mL; Minimal inhibitory concentration, Staphylococcus chromogenes [11]: 0.25 (9.3) μg/mL; Minimal inhibitory concentration, Staphylococcus epidermidis [12]: 1 (37.3) μg/mL; Minimal inhibitory concentration, Staphylococcus xylosus (Staphylococcus xylosus): 0.5 (18.7) μg/mL
9 | VKRTKRGARRGLTKVLKKIFGSIVKKAVSKGV [ΔModoCath1] | – | 2.9 µM | 2.9 µM | 11 (3.2) μg/mL | – | – | – | 0.7 to 18.8 | –
10 | VRRSKRGIKVPSFVKKVLKDVVSESIS [ΔModoCath6] | > 40 (13.2) μg/mL | > 40 (13.2) μg/mL | > 40 (13.2) μg/mL | > 40 (13.2) μg/mL | > 40 (13.2) μg/mL | > 40 (13.2) μg/mL | > 40 (13.2) μg/mL | – | –
11 | TRSRWRRFIRGAGRFARRYGWRIA [ΔPb-CATH4] | > 40 (13.1) μg/mL | > 40 (13.1) μg/mL | 11 (3.5) μg/mL | 4 (1.3) μg/mL | > 40 (13.1) μg/mL | > 40 (13.1) μg/mL | 20 (6.6) μg/mL | – | MICs, range over the strains against which active [8]: 0.7 to 18.8 µM
12 | MRGGRLCYCRRRFCVCVGR (disulfide (positions not given here)) [PG-1, pig cathelicidin produced recombinantly with a GFP-scaffold system, CNBr cleaved, disulfide bonds installed] | – | – | – | – | – | – | – | 0.7 to 18.8 | Minimal inhibitory concentration, Bacillus cereus [1, 14]: > 40 (17.5) μg/mL; Minimal inhibitory concentration, Enterococcus faecalis [2, 20]: > 40 (17.5) μg/mL; Minimal inhibitory concentration, Escherichia coli [9]: 23 (10.0) μg/mL; Minimal inhibitory concentration, Pseudomonas aeruginosa [3, 15]: 20 (8.7) μg/mL; Minimal inhibitory concentration, Streptococcus agalactiae [5, 17]: > 40 (17.5) μg/mL; Minimal inhibitory concentration, Streptococcus dysgalactiae [6, 18]: 32 (14.0) μg/mL; Minimal inhibitory concentration, Streptococcus equi subsp. zooepidemicus [7, 19]: > 40 (17.5) μg/mL
13 | GRFRRLRKKTRKRLKKIGKVLKWIPPIVGSIPLGCG [PMAP-36] | 28 (6.7) μg/mL | > 40 (9.6) μg/mL | 8 (1.9) μg/mL | 9 (2.2) μg/mL | > 40 (9.6) μg/mL | > 40 (9.6) μg/mL | > 40 (9.6) μg/mL | – | –
